Experimental data from US20150045312A1, “Use of Compounds Elevating Glutathione Levels for the Treatment of Autism, Autistic Spectrum Disorders and Fragile X Syndrome” (Promentis Pharmaceuticals, Inc., priority 2013, published 2015).

Legend:
[1] = in vivo; cited from earlier work
[2] = cited from earlier work
[3] = schizophrenia, bipolar disorder, obsessive-compulsive disorder, autism; cited from earlier work
[4] = autistic patients, added to risperidone treatment; cited from earlier work
[5] = molecular target: T1, system xc− (Homo sapiens, UniProt Q9UPY5); test: in vitro screening assay in human glial cells from brain astrocytoma (1321N1); format: cell-based; details: 1321N1 cells, high system xc− expression
T1 construct: a cell line with high system xc− expression; endogenous in cells; host or cells: 1321N1 human astrocytoma cells
T1 sequence (Q9UPY5 1-501): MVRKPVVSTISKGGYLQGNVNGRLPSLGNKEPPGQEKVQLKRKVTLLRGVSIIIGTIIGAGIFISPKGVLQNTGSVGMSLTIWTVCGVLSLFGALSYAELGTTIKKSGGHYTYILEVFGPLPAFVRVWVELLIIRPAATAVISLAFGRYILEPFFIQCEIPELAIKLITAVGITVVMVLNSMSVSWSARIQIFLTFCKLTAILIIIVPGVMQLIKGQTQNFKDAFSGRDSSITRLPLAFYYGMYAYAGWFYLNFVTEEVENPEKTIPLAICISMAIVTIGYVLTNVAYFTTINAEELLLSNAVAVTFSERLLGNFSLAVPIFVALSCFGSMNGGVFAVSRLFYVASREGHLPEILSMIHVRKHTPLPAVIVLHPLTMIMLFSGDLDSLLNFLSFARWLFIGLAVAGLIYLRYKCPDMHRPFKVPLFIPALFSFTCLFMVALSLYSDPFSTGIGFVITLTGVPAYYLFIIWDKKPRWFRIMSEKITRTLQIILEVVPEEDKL
T1 sequence (P08195 1-529 partner): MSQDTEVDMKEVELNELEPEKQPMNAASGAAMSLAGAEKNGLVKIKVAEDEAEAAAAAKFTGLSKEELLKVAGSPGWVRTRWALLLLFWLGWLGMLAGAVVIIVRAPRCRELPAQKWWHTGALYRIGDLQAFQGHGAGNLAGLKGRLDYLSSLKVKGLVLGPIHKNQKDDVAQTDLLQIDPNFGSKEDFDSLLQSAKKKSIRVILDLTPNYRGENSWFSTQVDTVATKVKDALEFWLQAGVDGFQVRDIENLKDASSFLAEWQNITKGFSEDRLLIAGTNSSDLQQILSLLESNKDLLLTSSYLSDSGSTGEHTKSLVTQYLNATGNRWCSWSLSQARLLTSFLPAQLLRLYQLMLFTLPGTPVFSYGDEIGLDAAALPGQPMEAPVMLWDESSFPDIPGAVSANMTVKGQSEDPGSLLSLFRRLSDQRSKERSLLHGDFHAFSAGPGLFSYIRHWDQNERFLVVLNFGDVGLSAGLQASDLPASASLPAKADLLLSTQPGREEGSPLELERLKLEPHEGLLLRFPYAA
From the text: Using an in vitro screening assay conducted in human glial cells from brain astrocytoma (1321N1), a cell line with high system xc− expression, the compound with the following formula: […]
Using an in vitro screening assay conducted in human glial cells from brain astrocytoma (1321N1), a cell line with high System xc− expression, the compound with the following formula: […]

[6] = pre-pulse inhibition (PPI) efficacy model of neuropsychiatric disease activity; format: in vivo
[7] = elevated plus maze (EPM) efficacy model of neuropsychiatric disease activity; format: in vivo; details: orally-active

## CC(=O)N[C@@H](CS)C(=O)O [NAC, N-acetyl cysteine]
[1]
  entry into the CNS: do not readily enter the CNS
[2]
  solubility characteristics: poor solubility characteristics
[3]
  symptoms of mental disorders: modestly improve symptoms
[4]
  irritability versus risperidone+placebo: significantly decrease irritability

## O=C(Cc1ccccc1)N[C@@H](CSC(c1ccccc1)(c1ccccc1)c1ccccc1)C(=O)O [drawing 15]
[5]
  3H-glutamate: significant elevations
  uptake of 14C-cystine: robust and significant decrease

## O=C(Cc1ccccc1)N[C@@H](CSC(c1ccccc1)(c1ccccc1)c1ccccc1)C(=O)O [drawing 16]
[6]; at a comparable dose range, similar to clozapine
  response in PPI model compared with clozapine: antipsychotic-like response
[6]; orally-active
  behavioral effects in PPI model: significant behavioral effects
[7]
  behavioral effects in EPM model: significant behavioral effects

## N[C@@H](CCC(=O)N[C@@H](CS)C(=O)NCC(=O)O)C(=O)O [glutathione]
[1]
  entry into the CNS: do not readily enter the CNS
[2]
  solubility characteristics: poor solubility characteristics
